Data taken from ChEMBL document CHEMBL2331360, “QSAR studies of sulfamate and sulfamide inhibitors targeting human carbonic anhydrase isozymes I, II, IX and XII” (Bioorg Med Chem, 2013).

Key:
[1] = target: Carbonic anhydrase 9 (Homo sapiens) (UniProt Q16790)
Description: Inhibition of human carbonic anhydrase-9

[2] = target: Carbonic anhydrase 2 (Homo sapiens) (UniProt P00918)
Description: Inhibition of human carbonic anhydrase-2

Row | Compound | log(43000/Ki) [1] | log(43000/Ki) [2]
1 | CC(NC(=O)Nc1ccc(NS(N)(=O)=O)cc1)c1cccc2ccccc12 (stereo not drawn) | 3.35 | 2.02
2 | NS(=O)(=O)Nc1ccc(NC(=O)Nc2ccccc2-c2ccccc2)cc1 | 2.47 | 1.68
3 | NS(=O)(=O)Oc1ccc(NC(=O)NC23CC4CC(CC(C4)C2)C3)cc1 | 3.31 | 1.96
4 | NS(=O)(=O)Nc1ccc(NC(=O)NCc2ccccc2)cc1 | 3.63 | 2.47
5 | NS(=O)(=O)Nc1ccc(NC(=O)NC2CCCCC2)cc1 | 2.55 | 2.08
6 | NS(=O)(=O)Nc1ccc(NC(=O)NCc2ccco2)cc1 | 3.35 | 2.1
7 | NS(=O)(=O)Nc1ccc(NC(=O)NCCc2ccccc2)cc1 | 3.59 | 2.44

Now from value to compound:

Row | log(43000/Ki) [1] | log(43000/Ki) [2] | Compound
8 | 3.63 | 1.8 | Cc1cc(C)cc(NC(=O)Nc2ccc(NS(N)(=O)=O)cc2)c1
9 | 3 | 2.13 | NS(=O)(=O)Nc1ccc(NC(=O)Nc2ccc(Cl)cc2)cc1
10 | 3.43 | 2.14 | CCCCOc1ccc(NC(=O)Nc2ccc(NS(N)(=O)=O)cc2)cc1
11 | 2.64 | 1.8 | CC(C)c1ccccc1NC(=O)Nc1ccc(NS(N)(=O)=O)cc1
12 | 3.03 | 1.99 | COc1ccc(C)cc1NC(=O)Nc1ccc(NS(N)(=O)=O)cc1
13 | 3.31 | 2.14 | COc1ccc(NC(=O)Nc2ccc(NS(N)(=O)=O)cc2)c(C)c1
14 | 3.43 | 2.01 | NS(=O)(=O)Nc1ccc(NC(=O)Nc2cccc([N+](=O)[O-])c2)cc1
